# Source: EPA's ToxRefDB 2
# Tests used:
# mouse [1] = settings: Combined chronic toxicity/carcinogenicity, other, Oral, Feed, dose end: 80 week, group: systemic
# mouse [2] = settings: Carcinogenicity, other, Oral, Feed, dose end: 18 month, group: systemic
# rat [3] = settings: Subchronic oral toxicity in rodents, wistar, Feed, dose end: 13 week, group: systemic
# mouse [4] = settings: Subchronic oral toxicity in rodents, other, Feed, dose end: 13 week, group: systemic
# rat [5] = settings: Prenatal developmental toxicity study, sprague dawley, Oral, Gavage/Intubation, dose end: 15 GD
# rabbit [6] = settings: Prenatal developmental toxicity study, new zealand white, Oral, Gavage/Intubation, dose end: 18 GD
# rat [7] = settings: Subchronic oral toxicity in rodents, sprague dawley, Gavage/Intubation, dose end: 91 day, group: systemic
# rat [8] = settings: Prenatal developmental toxicity study, Sprague-Dawley, Oral, Gavage/Intubation, dose end: 15 GD
# rabbit [9] = settings: Prenatal developmental toxicity study, new zealand white, Oral, Gavage/Intubation, dose end: 19 GD
# rat [10] = settings: Subchronic oral toxicity in rodents, sprague dawley, Feed, dose end: 13 week
# rat [11] = settings: Multigenerational reproductive toxicity study, sprague dawley, Oral, Feed, dose end: 2 generation
# dog [12] = settings: Chronic toxicity, beagle, Oral, Capsule, dose end: 12 month
# dog [13] = settings: Subchronic oral toxicity in nonrodent, beagle, Feed, dose end: 3 month
# mouse [14] = settings: Carcinogenicity, cd1, Oral, Feed, dose end: 78 week, group: systemic
# [15] = systemic / clinical chemistry / immunoglobulins / immunoglobulins + systemic / pathology microscopic / thymus / cyst
# [16] = systemic / clinical chemistry / immunoglobulins / immunoglobulins
# [17] = systemic / clinical chemistry / aspartate aminotransferase (ast/sgot) / aspartate aminotransferase (ast/sgot) + systemic / in life …
# [18] = systemic / organ weight / adrenal gland / absolute
# [19] = systemic / organ weight / adrenal gland / absolute + systemic / clinical chemistry / albumin / albumin + systemic / clinical chemistry / …
# [20] = group: developmental, developmental / developmental malformation / bone / unossified + systemic / in life observation / body weight / fetal weight
# [21] = group: maternal, systemic / in life observation / body weight / body weight gain + systemic / in life observation / clinical signs / poor general condition
# [22] = group: maternal, systemic / in life observation / body weight / body weight gain + systemic / in life observation / clinical signs / poor general condition…
# [23] = group: developmental, systemic / in life observation / body weight / fetal weight
# [24] = group: developmental, systemic / in life observation / body weight / fetal weight + developmental / developmental malformation / bone / unossified
# [25] = group: maternal, systemic / in life observation / body weight / body weight gain + reproductive / reproductive performance / aborted / aborted + systemic / …
# [26] = systemic / in life observation / mortality / mortality + systemic / pathology microscopic / kidney / hydronephrosis + systemic / clinical …
# [27] = group: developmental, developmental / developmental malformation / bone / unossified + developmental / developmental malformation / trunk / omphalocele + systemic…
# [28] = group: maternal, reproductive / reproductive performance / resorptions / resorptions + systemic / in life observation / body weight / body weight + systemic…
# [29] = group: cholinesterase, cholinesterase / cholinesterase / cholinesterase / erythrocyte cholinesterase (che) + cholinesterase / cholinesterase / cholinesterase / …
# [30] = group: maternal, systemic / in life observation / body weight / body weight + systemic / in life observation / clinical signs / fur (altered appearance) + …
# [31] = group: cholinesterase, cholinesterase / cholinesterase / cholinesterase / brain cholinesterase (che) + cholinesterase / cholinesterase / cholinesterase / plasma …
# [32] = group: cholinesterase, cholinesterase / cholinesterase / cholinesterase / plasma cholinesterase (che)
# [33] = group: systemic, systemic / in life observation / body weight / body weight + systemic / in life observation / body weight / body weight gain + systemic / in…
# [34] = group: systemic, systemic / in life observation / body weight / body weight + systemic / in life observation / body weight / body weight gain + systemic / …
# [35] = group: offspring, systemic / in life observation / body weight / offspring (pup) weight
# [36] = group: parental, systemic / in life observation / body weight / body weight
# [37] = group: parental, systemic / in life observation / body weight / body weight + systemic / pathology microscopic / heart / cardiomyopathy
# [38] = group: systemic, systemic / pathology microscopic / thymus / atrophy
# [39] = group: systemic, systemic / in life observation / clinical signs / salivation + systemic / clinical chemistry / urea nitrogen / urea nitrogen + systemic / in…
# [40] = systemic / in life observation / body weight / body weight + systemic / in life observation / food consumption / food consumption
compound,measurement,setting,value
[OH-].c1cc[c]([Sn+]([c]2ccccc2)[c]2ccccc2)cc1 [Triphenyltin hydroxide],LEL,mouse [1]; [15],0.85 mg/kg/day
same,NEL,mouse [1]; [15],< 0.85 mg/kg/day
same,NOAEL,mouse [1]; systemic / clinical chemistry / immunoglobulins / immunoglobulins + systemic / pathology microscopic / thymus / cyst + systemic / in life …,3.5 mg/kg/day
same,LOAEL,mouse [1]; systemic / in life observation / body weight / body weight gain + systemic / organ weight / liver / absolute + systemic / organ weight / …,15.2 mg/kg/day
same,LOAEL,mouse [2]; [16],0.85 mg/kg/day
same,NOAEL,mouse [2]; [16],< 0.85 mg/kg/day
same,LEL,mouse [2]; [15],0.85 mg/kg/day
same,NEL,mouse [2]; [15],< 0.85 mg/kg/day
same,LEL,rat [3]; systemic / clinical chemistry / aspartate aminotransferase (ast/sgot) / aspartate aminotransferase (ast/sgot) + systemic / clinical …,1.56 mg/kg/day
same,LOAEL,rat [3]; [17],7.41 mg/kg/day
same,NEL,rat [3]; [17],0.3 mg/kg/day
same,NOAEL,rat [3]; [17],1.56 mg/kg/day
same,LEL,mouse [4]; [18],4.12 mg/kg/day
same,LOAEL,mouse [4]; [18],4.12 mg/kg/day
same,NEL,mouse [4]; [19],0.88 mg/kg/day
same,NOAEL,mouse [4]; [19],0.88 mg/kg/day
same,LEL,rat [5]; [20],8 mg/kg/day
same,LOAEL,rat [5]; [20],8 mg/kg/day
same,NEL,rat [5]; [20],2.8 mg/kg/day
same,NOAEL,rat [5]; [20],2.8 mg/kg/day
same,LEL,rat [5]; [21],2.8 mg/kg/day
same,LOAEL,rat [5]; [21],2.8 mg/kg/day
same,NEL,rat [5]; [22],1 mg/kg/day
same,NOAEL,rat [5]; [22],1 mg/kg/day
same,LOAEL,rabbit [6]; [23],0.9 mg/kg/day
same,LEL,rabbit [6]; [24],0.9 mg/kg/day
same,NEL,rabbit [6]; [24],0.3 mg/kg/day
same,NOAEL,rabbit [6]; [24],0.3 mg/kg/day
same,LOAEL,"rabbit [6]; group: maternal, systemic / in life observation / body weight / body weight gain",0.3 mg/kg/day
same,NEL,rabbit [6]; [25],0.1 mg/kg/day
same,NOAEL,rabbit [6]; [25],0.1 mg/kg/day
same,LEL,"rabbit [6]; group: maternal, systemic / in life observation / body weight / body weight gain + systemic / in life observation / body weight / body weight + systemic / in…",0.3 mg/kg/day
[PH]=[Zn].[PH]=[Zn].[Zn] [Zinc phosphide],NEL,rat [7]; systemic / in life observation / clinical signs / body cold to touch + systemic / in life observation / clinical signs / salivation + …,0.1 mg/kg/day
same,LOAEL,rat [7]; systemic / in life observation / mortality / mortality + systemic / pathology microscopic / kidney / hydronephrosis,1 mg/kg/day
same,LEL,rat [7]; [26],1 mg/kg/day
same,NOAEL,rat [7]; [26],0.1 mg/kg/day
CCCN(CCC)C(=O)SCC [EPTC],LEL,rat [8]; [27],300 mg/kg/day
same,LOAEL,rat [8]; [27],300 mg/kg/day
same,NEL,rat [8]; [27],100 mg/kg/day
same,NOAEL,rat [8]; [27],100 mg/kg/day
same,LEL,"rat [8]; group: maternal, reproductive / reproductive performance / postimplantation loss / postimplantation loss",100 mg/kg/day
same,LOAEL,rat [8]; [28],300 mg/kg/day
same,NEL,rat [8]; [28],30 mg/kg/day
same,NOAEL,rat [8]; [28],100 mg/kg/day
same,LEL,rabbit [9]; [29],5 mg/kg/day
same,LOAEL,rabbit [9]; [29],5 mg/kg/day
same,NEL,rabbit [9]; [29],< 5 mg/kg/day
same,NOAEL,rabbit [9]; [29],< 5 mg/kg/day
same,LEL,rabbit [9]; [23],300 mg/kg/day
same,LOAEL,rabbit [9]; [23],300 mg/kg/day
same,NEL,rabbit [9]; [23],40 mg/kg/day
same,NOAEL,rabbit [9]; [23],40 mg/kg/day
same,LEL,rabbit [9]; [30],300 mg/kg/day
same,LOAEL,rabbit [9]; [30],300 mg/kg/day
same,NEL,rabbit [9]; [30],40 mg/kg/day
same,NOAEL,rabbit [9]; [30],40 mg/kg/day
same,LOAEL,rat [10]; [31],> 120 mg/kg/day
same,NOAEL,rat [10]; [31],≥ 120 mg/kg/day
same,LEL,rat [10]; [32],72 mg/kg/day
same,NEL,rat [10]; [32],15 mg/kg/day
same,LOAEL,rat [10]; [33],15 mg/kg/day
same,NOAEL,rat [10]; [33],3 mg/kg/day
same,LEL,rat [10]; [34],3 mg/kg/day
same,NEL,rat [10]; [34],< 3 mg/kg/day
same,LEL,rat [11]; [35],40 mg/kg/day
same,LOAEL,rat [11]; [35],40 mg/kg/day
same,NEL,rat [11]; [35],10 mg/kg/day
same,NOAEL,rat [11]; [35],10 mg/kg/day
same,NEL,rat [11]; [36],2.5 mg/kg/day
same,NOAEL,rat [11]; [36],2.5 mg/kg/day
same,LEL,rat [11]; [37],10 mg/kg/day
same,LOAEL,rat [11]; [37],10 mg/kg/day
same,LEL,dog [12]; [32],8 mg/kg/day
same,LOAEL,dog [12]; [32],8 mg/kg/day
same,NEL,dog [12]; [32],1 mg/kg/day
same,NOAEL,dog [12]; [32],1 mg/kg/day
same,NOAEL,"dog [12]; group: systemic, systemic / pathology microscopic / lung / fibrosis + systemic / pathology microscopic / lung / inflammation + systemic / clinical chemistry…",1 mg/kg/day
same,LOAEL,"dog [12]; group: systemic, systemic / pathology microscopic / lung / fibrosis + systemic / pathology microscopic / lung / inflammation + systemic / in life observation…",8 mg/kg/day
same,LEL,dog [12]; [38],1 mg/kg/day
same,NEL,dog [12]; [38],< 1 mg/kg/day
same,LEL,dog [13]; [32],45 mg/kg/day
same,LOAEL,dog [13]; [32],45 mg/kg/day
same,NEL,dog [13]; [32],15 mg/kg/day
same,NOAEL,dog [13]; [32],15 mg/kg/day
same,LOAEL,"dog [13]; group: systemic, systemic / in life observation / clinical signs / salivation",45 mg/kg/day
same,LEL,dog [13]; [39],45 mg/kg/day
same,NEL,dog [13]; [39],15 mg/kg/day
same,NOAEL,dog [13]; [39],15 mg/kg/day
same,LEL,mouse [14]; systemic / in life observation / body weight / body weight,90 mg/kg/day
same,LOAEL,mouse [14]; [40],270 mg/kg/day
same,NEL,mouse [14]; [40],30 mg/kg/day
same,NOAEL,mouse [14]; [40],90 mg/kg/day
